Source: US10993439B2, “Mesoionic imidazopyridines as insecticides” (BAYER AKTIENGESELLSCHAFT, priority 2017, dated 2021)

Assays:
Myzus persicae [1] = test: Myzus persicae oral test; format: in vivo; conditions: application rate 4 ppm; mixed population of green peach aphid; after 5 days
Procedure: Solvent: 100 parts by weight of acetone
The plates are then sealed with parafilm which can be pierced by a mixed population of the green peach aphid (Myzus persicae) located in a second microtiter plate in order to take up the solution.
(§1) After 5 days, the efficacy in % is determined. 100% means that all the aphids have been killed; 0% means that none of the aphids have been killed.

[2] = log P by HPLC on reversed-phase column (EEC directive 79/831 Annex V.A8); format: physicochemical; conditions: reversed-phase column (C18), 43° C., calibration with unbranched alkan-2-ones
Procedure: The log P values reported in the tables and preparation examples above were determined in accordance with EEC directive 79/831 Annex V.A8 by HPLC (High Performance Liquid Chromatography) using a reversed-phase column (C18). Temperature 43° C. The calibration is effected with unbranched alkan-2-ones (having 3 to 16 carbon atoms), for which the log P values are known.

Ctenocephalides felis = Ctenocephalides felis in vitro contact test with adult cat fleas; format: in vivo; conditions: application rate 5 μg/cm^2 (=500 g of ai/ha), after 48 h
Procedure: For the coating of the test tubes, 9 mg of active compound are first dissolved in 1 ml of acetone p.a. and then diluted to the desired concentration with acetone p.a. 250 μl of the solution are distributed homogeneously on the inner walls and the base of a 25 ml test tube by turning and rocking on an orbital shaker (rocking rotation at 30 rpm for 2 h). With 900 ppm active compound solution and internal surface 44.7 cm^2, given homogeneous distribution, an area-based dose of 5 μg/cm^2 is achieved.
After the solvent has evaporated off, the tubes are populated with 5-10 adult cat fleas (Ctenocephalides felis), sealed with a perforated plastic lid and incubated in a horizontal position at room temperature and ambient humidity. After 48 h, efficacy is determined. To this end, the tubes are stood upright and the fleas are knocked to the base of the tube. Fleas which remain motionless at the base or are moved in an uncoordinated manner are considered to be dead or moribund.
100% efficacy means that all the fleas were dead or moribund. 0% efficacy means that no fleas were harmed.

Diabrotica balteata = Diabrotica balteata spray test; format: in vivo; conditions: application rate 160 μg/well; beetle larvae on germinated wheat grains; after 7 days
Procedure: (§2) Solvents: 78 parts by weight of acetone • • 1.5 parts by weight of dimethylformamide
(§3) Emulsifier: alkylaryl polyglycol ether
(§4) To produce a suitable preparation of active compound, 1 part by weight of active compound is dissolved using the stated parts by weight of solvent and made up with water containing an emulsifier concentration of 1000 ppm until the desired concentration is attained. To produce further test concentrations, the preparation is diluted with emulsifier-containing water.
Preswollen wheat grains (Triticum aestivum) are incubated in a multiwell plate filled with agar and a little water for one day (5 seed grains per well). The germinated wheat grains are sprayed with an active compound preparation of the desired concentration. Subsequently, each well is infested with 10-20 Diabrotica balteata beetle larvae.
After 7 days, the efficacy in % is determined. 100% means that all wheat plants have grown as in the untreated non-infested control; 0% means that no wheat plant has grown.

Myzus persicae [3] = test: Myzus persicae spray test; format: in vivo; conditions: application rate 500 g/ha; Chinese cabbage leaf discs, all stages of green peach aphid; after 5 days
Procedure: as §2, §3, §4
Discs of Chinese cabbage leaves (Brassica pekinensis) infested by all stages of the green peach aphid (Myzus persicae) are sprayed with an active compound preparation of the desired concentration.
as §1

Row | chromatographic logP [2] | Compound | other results
1 | 0.39 | COC(=O)c1c([O-])n(CCC#N)c2cccc[n+]12 [1-(2-cyanoethyl)-3-methoxycarbonylimidazo[1,2-a]pyridin-4-ium-2-olate] | 
2 | 1.79 | O=C(c1c([O-])n(CC(F)(F)F)c2cccc[n+]12)C(F)(F)F [I-047, 3-(2,2,2-trifluoroacetyl)-1-(2,2,2-trifluoroethyl)imidazo[1,2-a]pyridin-4-ium-2-olate] | efficacy (fleas dead or moribund) (Ctenocephalides felis): 80%; efficacy (wheat plants grown as in untreated non-infested control) (Diabrotica balteata): 100%
3 | 0.8 | N#CCCn1c([O-])c(C(=O)CCl)[n+]2ccccc12 [I-084, 3-(2-Chloroacetyl)-1-(2-cyanoethyl)imidazo[1,2-a]pyridin-4-ium-2-olate] | 
4 | 1.18 | COC(=O)C(=O)c1c([O-])n(CC(F)(F)F)c2cccc[n+]12 [I-051, 3-(2-Methoxy-2-oxoacetyl)-1-(2,2,2-trifluoroethyl)imidazo[1,2-a]pyridin-4-ium-2-olate] | efficacy (aphids killed) (Myzus persicae [1]): 100%
5 | 1.01 | COC(=O)c1c([O-])n(CC(F)(F)F)c2cccc[n+]12 [3-methoxycarbonyl-1-(2,2,2-trifluoroethyl)imidazo[1,2-a]pyridin-4-ium-2-olate] | 
6 | 0.8 | Cc1ccc[n+]2c(C(=O)CCl)c([O-])n(CCC#N)c12 [I-095, 3-(2-Chloroacetyl)-1-(2-cyanoethyl)-8-methyl-imidazo[1,2-a]pyridin-4-ium-2-olate] | 
7 | 1.35 | Cc1ccc[n+]2c(C(=O)C(F)(F)F)c([O-])n(CCC#N)c12 [I-027, 1-(2-Cyanoethyl)-8-methyl-3-(2,2,2-trifluoroacetyl)imidazo[1,2-a]pyridin-4-ium-2-olate] | 

Row | Compound | chromatographic logP [2] | other results
8 | CO/N=C/C(=O)c1c([O-])n(CCC#N)c2cccc[n+]12 [I-094, 1-(2-Cyanoethyl)-3-[(2E)-2-methoxyiminoacetyl]imidazo[1,2-a]pyridin-4-ium-2-olate] | 0.73 | efficacy (aphids killed) (Myzus persicae [1]): 100%
9 | N#CCCn1c([O-])c(C(=O)c2cccc(C(F)(F)F)c2)[n+]2ccccc12 [I-004, 1-(2-Cyanoethyl)-3-[3-(trifluoromethyl)benzoyl]imidazo[1,2-a]pyridin-4-ium-2-olate] | 1.35 | efficacy (aphids killed) (Myzus persicae [1]): 100%
10 | N#CCCn1c([O-])c(C(=O)Nc2c(Cl)cccc2Cl)[n+]2ccccc12 [I-016, 1-(2-Cyanoethyl)-3-[(2,6-dichlorophenyl)carbamoyl]imidazo[1,2-a]pyridin-4-ium-2-olate] | 1.81 | efficacy (fleas dead or moribund) (Ctenocephalides felis): 100%; efficacy (aphids killed) (Myzus persicae [3]): 100%
11 | CC1(OC(=O)C(=O)c2c([O-])n(CCC#N)c3cccc[n+]23)CC1 [I-089, 1-(2-Cyanoethyl)-3-[2-(1-methylcyclopropoxy)-2-oxo-acetyl]imidazo[1,2-a]pyridin-4-ium-2-olate] | 1.33 | efficacy (aphids killed) (Myzus persicae [3]): 90%
